{"source": "patent US20110033390A1", "about": "“MR IMAGING AGENT OR MEDIUM COMPRESSING HYPERPOLARISED 13C ALANINE AND METHODS OF IMAGING WHEREIN SUCH AN IMAGING MEDIUM IS USED” (priority 2008, published 2011)", "key": {"[1]": {"tested_on": "mouse liver", "assay": "In vivo 13C-MR spectroscopy in mice (liver)", "conditions": "C57B1/6 mouse, surface coil over liver", "experimental": "175 μl of an imaging medium which was prepared as described in Example 1 was injected into a C57B1/6 mouse over a time period of 6 s. The ^13C1-alanine concentration in said imaging medium was approximately 55 mM. A surface coil (tuned for proton and carbon) was positioned over the liver of the animal and ^13C-MR spectroscopy was carried out in a 9.4 T magnet. A dynamic set of ^13C-MR spectra (in total 15) was acquired every 5 s with a 30 degree RF pulse. This experiment confirmed that ^13C1-lactate is building up during the time course of the experiment, see FIG. 3."}, "[2]": {"tested_on": "Hep-G2 cells", "assay": "In vitro 13C-MR spectroscopy with hyperpolarised 13C1-alanine imaging medium", "type": "cell-based, human", "conditions": "3 mM 13C1-alanine, 10x10^6 Hep-G2 cells, 20 s incubation", "experimental": "An imaging medium was prepared as described in Example 1 and 100 μl of the imaging medium (3 mM ^13C1-alanine) was mixed into 10×10^6 Hep-G2 cells (human hepatocellular carcinoma cells). A single ^13C-MR spectrum was acquired after a total of 20 s incubation time with a 90 degree RF pulse. ^13C1-pyruvate and ^13C1-lactate were identified in the spectrum. The conversion of alanine was approximately 0.1% to both lactate and pyruvate."}, "[3]": {"tested_on": "mice (whole body)", "assay": "In vivo 13C-MR spectroscopy in mice (whole body)", "design": "species or system mouse", "experimental": "175 μl of an imaging medium which was prepared as described in Example 1 was injected into a C57B1/6 mouse over a time period of 6 s. The ^13C1-alanine concentration in said imaging medium was approximately 50 mM and 3 animals were used in the experiment. A rat size whole body coil (tuned for proton and carbon) was placed over the animal and ^13C-MR spectroscopy was carried out in a 9.4 T magnet. A dynamic set of ^13C-MR spectra (in total 5) was acquired every 5 s with a 15 degree RF pulse. Metabolism was seen to ^13C1-lactate (approximately 1% of the ^13C1-lactate signal), see FIG. 1. […] The following decay time was calculated from the MR spectra: ^13C1-lactate 33 s. […] It is thus favourable to detect the lactate signal which due to its slow decay provides a larger MR detection window."}, "[4]": {"assay": "Liquid state polarisation after dissolution and neutralization, by liquid state 13C-NMR at 400 MHz", "type": "physicochemical", "experimental": "In a similar way, the level of polarisation for hyperpolarised ^13C-alanine in solution may be determined by liquid state NMR measurements. Again the signal intensity of the hyperpolarised ^13C-alanine in solution is compared with the signal intensity of the ^13C-alanine in solution before polarisation. The level of polarisation is then calculated from the ratio of the signal intensities of ^13C-alanine before and after polarisation.\nAfter 150 minutes of dynamic nuclear polarisation, the obtained frozen polarised solution was dissolved in a dissolution medium containing 6 ml of a phosphate buffer (20 mM, pH 6.8, 100 mg/l EDTA), aqueous NaOH (27 μl 12 M solution, 1 eq) and 30 mg NaCl. The pH of the final liquid was 6.8.\nLiquid state polarisation was determined by liquid state ^13C-NMR at 400 MHz to be 35%.\nAfter 120 minutes of dynamic nuclear polarisation, the obtained frozen polarised solution was dissolved in a dissolution medium containing 6 ml BIS TRIS (40 mM, pH 6, 100 mg/l EDTA, 0.9% NaCl). The pH of the final solution containing the dissolved composition was 6.\nLiquid state polarisation was determined by liquid state ^13C-NMR at 400 MHz to be 16%."}, "[5]": {"tested_on": "mouse heart", "assay": "In vivo 13C-MR spectroscopy in mice (heart)", "experimental": "175 μl of an imaging medium which was prepared as described in Example 1 was injected into a C57B1/6 mouse over a time period of 6 s. The ^13C1-alanine concentration in said imaging medium was about 55 mM. A surface coil (tuned for proton and carbon) was positioned over the heart of the animal and ^13C-MR spectroscopy was carried out in a 9.4 T magnet. A dynamic set of ^13C-MR spectra (in total 10) was acquired every 5 s with a 30 degree RF pulse. […] The lactate seen in the experiment is expected to originate from pyruvate. […] Comparing Examples 5 and 6, a different metabolic profile is obtained for the liver and the heart showing that ^13C-alanine is a tissue specific metabolic marker."}, "[6]": {"assay": "Solid state polarisation after DNP, by solid state 13C-NMR", "type": "physicochemical", "conditions": "DNP at 1.2 K, 3.35 T, microwave 93.90 GHz; trityl radical and Gd-chelate present", "text": "The level of polarisation may for instance be determined by solid state ^13C-NMR measurements in solid hyperpolarised ^13C-alanine, e.g. solid hyperpolarised ^13C-alanine obtained by dynamic nuclear polarisation (DNP) of ^13C-alanine. The solid state ^13C-NMR measurement preferably consists of a simple pulse-acquire NMR sequence using a low flip angle. The signal intensity of the hyperpolarised ^13C-alanine in the NMR spectrum is compared with signal intensity of ^13C-alanine in a NMR spectrum acquired before the polarisation process. The level of polarisation is then calculated from the ratio of the signal intensities of before and after polarisation.\nThe probe is inserted into the probe-retaining container, submerged in the liquid helium and irradiated with microwaves, preferably at a frequency of about 94 GHz at 200 mW. The level of polarisation may for instance be monitored by solid state ^13C-NMR measurements of the ^13C-nuclei in the frozen composition comprising the hyperpolarised sample. […] The level of polarisation is then calculated from the ratio of the signal intensities of before and after polarisation.\n32.5 mg (0.258 mmol) of the ^13C1-alaninium chloride obtained in Example 1a was added to 42 mg of a stock solution in a micro test tube. […] Polarisation was followed by solid state ^13C-NMR and the solid state polarisation was determined to be 40%. […]"}, "[7]": {"conditions": "mouse, in vivo", "experimental": "In another preferred embodiment, the imaging medium comprising hyperpolarised ^13C-alanine is administered repeatedly, thus allowing dynamic studies. This is a further advantage of the method according to the invention compared to other MR detection methods using conventional MR contrast agents which—in higher doses—may show toxic effects."}, "[8]": {"assay": "Relaxation / loss of polarisation in solution as a function of pH", "type": "physicochemical", "conditions": "solutions with a pH above 7", "text": "If the sample used in the composition for DNP is a carboxylate salt of ^13C-alanine, said salt needs to be converted to the free ^13C-alanine by reaction (neutralization) with an acid. […] Thus, if a carboxylate salt of ^13C-alanine was used in the composition for DNP, the liquefaction and neutralization of the solid composition comprising the hyperpolarised carboxylate salt of ^13C-alanine needs to be carried out carefully in order to avoid loss of polarisation. Neutralization may be carried out simultaneously or subsequently to the liquefaction, for the latter it must be taken care that neutralization is carried out quickly and directly after liquefaction. Thus, in one embodiment the liquefaction is carried out by melting or dissolution of the frozen composition and neutralization with an acid is quickly carried out after the frozen composition was dissolved/melted. In another embodiment, liquefaction and neutralization are carried out simultaneously, e.g. by dissolving the frozen composition in a dissolution medium which is or contains an acid that is capable of converting the hyperpolarised carboxylate salt of ^13C-alanine to ^13C-alanine. In yet another embodiment the acid is added to the probe-retaining cup which contains the frozen composition in the dynamic nuclear polarisation process. […] The most preferred acid is HCl since it is cheap and readily available."}}}
{"smiles": "CC(N)[13C](=O)O", "note": "(stereo not drawn) [^13C1-alanine]", "values": [{"measurement": "13C1-lactate signal over the time course", "setting": "[1]; 175 µl of approx. 55 mM", "result": "building up"}, {"measurement": "13C1-pyruvate and 13C1-bicarbonate signals", "setting": "[1]; 15 combined spectra", "result": "could be detected"}, {"measurement": "conversion of alanine to lactate", "setting": "[2]", "result": "approximately 0.1%"}, {"measurement": "conversion of alanine to pyruvate", "setting": "[2]", "result": "approximately 0.1%"}, {"measurement": "metabolism to 13C1-lactate (relative signal)", "setting": "[3]; C57B1/6 mouse, 175 µl of approx. 50 mM injected over 6 s, whole body coil, 9.4 T", "result": "approximately 1%"}, {"measurement": "pyruvate signal", "setting": "[3]; mouse whole body", "result": "No pyruvate signal could be detected"}, {"measurement": "liquid state polarisation", "setting": "[4]; Example 1c: from 13C1-alaninium chloride after 150 min DNP, dissolved in phosphate buffer/NaOH, final pH 6.8", "result": 35, "unit": "%"}, {"measurement": "liquid state polarisation", "setting": "[4]; Example 2: from sodium 13C1-2-amino-propanoate after 120 min DNP, dissolved in BIS TRIS, HCl neutralization, final pH 6", "result": 16, "unit": "%"}, {"measurement": "build-up of 13C1-lactate", "setting": "[5]; C57B1/6 mouse, 175 µl of about 55 mM, surface coil over heart", "result": "noteworthy slow"}, {"measurement": "pyruvate signal", "setting": "[5]; mouse heart", "result": "absence of pyruvate"}]}
{"smiles": "C[C@H](N)[13C](=O)O.Cl", "note": "[^13C1-alaninium chloride]", "values": [{"measurement": "solid state polarisation", "setting": "[6]", "result": 40, "unit": "%"}]}
{"smiles": "C[C@H](O)[13C](=O)O", "note": "[^13C1-lactate]", "values": [{"measurement": "decay time calculated from the MR spectra", "setting": "[3]; 13C1-lactate signal after injection of hyperpolarised 13C1-alanine, mouse whole body", "result": 33, "unit": "s"}]}
{"smiles": "CC(N)C(=O)O", "note": "(stereo not drawn) [hyperpolarised ^13C-alanine, 2-amino-propanoic acid]", "values": [{"measurement": "tolerability", "setting": "[7]", "result": "well tolerated"}, {"measurement": "relaxation rate / loss of polarisation", "setting": "[8]", "result": "high relaxation rates"}]}
{"smiles": "CC(N)[13C](=O)[O-].[Na+]", "note": "(stereo not drawn) [sodium ^13C1-2-amino-propanoate]", "values": [{"measurement": "solid state polarisation", "setting": "[6]", "result": 18, "unit": "%"}]}
